Experimental data taken from paper PMC8632988, “Inhibition of SYK and cSrc kinases can protect bone and cartilage in preclinical models of osteoarthritis and rheumatoid arthritis” (Scientific Reports, 2021).
“And” between values parts separate entries of the source, which are not always exact repeats. Identical values can stand only once. Like-named read-outs stand apart in the source and are kept apart here.

Legend:
Assay in all cases: Kinase selectivity profile assay
Format in all cases: biochemical
PKCiota = biological target: T1, PKCiota (Homo sapiens, UniProt P41743); details: 500 nM; relative to DMSO; read-out: Residual enzymatic activity
T1 construct: purchased Reaction Biology Corporation
Outline: (§1)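 Radiometric kinase assay run by a standard protocol. Unbound phosphate was removed by washing filters in phosphoric acid, and product radioactivity gave percent remaining kinase activity versus DMSO vehicle reactions. Run in duplicate.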

GRK3 = biological target: T2, GRK3 (Homo sapiens, UniProt P35626); details: 500 nM; relative to DMSO; read-out: Residual enzymatic activity
T2 construct: purchased Reaction Biology Corporation
Outline: as §1

NEK5 = biological target: T3, NEK5 (Homo sapiens, UniProt Q6P3R8); details: 500 nM; relative to DMSO; read-out: Residual enzymatic activity
T3 construct: purchased Reaction Biology Corporation
Outline: as §1

DYRK3 = biological target: T4, DYRK3 (Homo sapiens, UniProt O43781); details: 500 nM; relative to DMSO; read-out: Residual enzymatic activity
T4 construct: purchased Reaction Biology Corporation
Outline: as §1

EPHA4 = biological target: T5, EPHA4 (Homo sapiens, UniProt P54764); details: 500 nM, relative to DMSO; for remaining activity at 0.5 µM: read-out: Residual enzymatic activity
T5 construct: purchased Reaction Biology Corporation
Outline: as §1

ERK2/MAPK1 = biological target: T6, ERK2/MAPK1 (Homo sapiens, UniProt P28482); details: 500 nM; relative to DMSO; read-out: Residual enzymatic activity
T6 construct: purchased Reaction Biology Corporation
Outline: as §1

PKA = biological target: T7, PKA (Homo sapiens, UniProt P17612); details: 500 nM, relative to DMSO; for remaining activity at 0.5 µM: read-out: Residual enzymatic activity
T7 construct: purchased Reaction Biology Corporation
Outline: as §1

Haspin = biological target: T8, Haspin (Homo sapiens, UniProt Q8TF76); details: 500 nM; relative to DMSO; read-out: Residual enzymatic activity
T8 construct: purchased Reaction Biology Corporation
Outline: as §1

CAMK2d = biological target: T9, CAMK2d (Homo sapiens, UniProt Q13557); details: read-out: Residual enzymatic activity
T9 construct: purchased Reaction Biology Corporation
Outline: as §1

FLT3 = biological target: T10, FLT3 (Homo sapiens, UniProt P36888); details: for remaining activity at 0.5 µM: 500 nM, relative to DMSO, read-out: Residual enzymatic activity
T10 construct: purchased Reaction Biology Corporation (assay service)
T10 sequence (P36888 27-993): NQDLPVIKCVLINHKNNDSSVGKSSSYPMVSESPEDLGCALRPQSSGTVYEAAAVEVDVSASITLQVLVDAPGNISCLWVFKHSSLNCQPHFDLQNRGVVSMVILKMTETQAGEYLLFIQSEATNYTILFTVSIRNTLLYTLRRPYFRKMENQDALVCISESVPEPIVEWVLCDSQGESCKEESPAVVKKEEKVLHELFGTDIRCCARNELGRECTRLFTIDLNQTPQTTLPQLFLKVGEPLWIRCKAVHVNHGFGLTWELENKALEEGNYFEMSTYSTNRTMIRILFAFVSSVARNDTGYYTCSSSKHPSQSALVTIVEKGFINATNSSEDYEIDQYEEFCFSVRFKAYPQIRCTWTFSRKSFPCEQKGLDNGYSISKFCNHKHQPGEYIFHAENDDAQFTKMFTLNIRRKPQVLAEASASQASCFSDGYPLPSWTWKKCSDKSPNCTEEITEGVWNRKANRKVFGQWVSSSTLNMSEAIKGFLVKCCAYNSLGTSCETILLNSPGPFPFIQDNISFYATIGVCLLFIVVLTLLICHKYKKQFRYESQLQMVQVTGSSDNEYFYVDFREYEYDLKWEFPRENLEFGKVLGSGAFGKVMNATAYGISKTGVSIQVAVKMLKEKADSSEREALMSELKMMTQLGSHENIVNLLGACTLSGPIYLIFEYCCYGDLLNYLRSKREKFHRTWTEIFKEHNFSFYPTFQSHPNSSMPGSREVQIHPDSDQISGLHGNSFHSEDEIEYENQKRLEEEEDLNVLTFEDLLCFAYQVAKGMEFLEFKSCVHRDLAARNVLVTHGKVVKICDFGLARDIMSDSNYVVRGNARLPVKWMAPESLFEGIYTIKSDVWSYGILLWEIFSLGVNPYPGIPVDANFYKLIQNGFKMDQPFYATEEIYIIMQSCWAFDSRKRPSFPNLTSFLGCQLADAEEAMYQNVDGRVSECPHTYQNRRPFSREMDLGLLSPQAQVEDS
Outline: as §1

WNK1 = biological target: T11, WNK1 (Homo sapiens, UniProt Q9H4A3); details: 500 nM; relative to DMSO; read-out: Residual enzymatic activity
T11 construct: purchased Reaction Biology Corporation
Outline: as §1

SIK1 = biological target: T12, SIK1 (Homo sapiens, UniProt P57059); details: for remaining activity at 0.5 µM: 500 nM, relative to DMSO, read-out: Residual enzymatic activity
T12 construct: purchased Reaction Biology Corporation (Malvern, PA, USA)
Outline: as §1

MYO3b = biological target: T13, MYO3b (Homo sapiens, UniProt Q8WXR4); details: 500 nM; relative to DMSO; read-out: Residual enzymatic activity
T13 construct: purchased Reaction Biology Corporation
Outline: as §1

TXK = biological target: T14, TXK (Homo sapiens, UniProt P42681); details: for remaining activity at 0.5 µM: 500 nM, relative to DMSO, read-out: Residual enzymatic activity
T14 construct: purchased Reaction Biology Corporation (Malvern, PA, USA)
T14 sequence (P42681 1-527): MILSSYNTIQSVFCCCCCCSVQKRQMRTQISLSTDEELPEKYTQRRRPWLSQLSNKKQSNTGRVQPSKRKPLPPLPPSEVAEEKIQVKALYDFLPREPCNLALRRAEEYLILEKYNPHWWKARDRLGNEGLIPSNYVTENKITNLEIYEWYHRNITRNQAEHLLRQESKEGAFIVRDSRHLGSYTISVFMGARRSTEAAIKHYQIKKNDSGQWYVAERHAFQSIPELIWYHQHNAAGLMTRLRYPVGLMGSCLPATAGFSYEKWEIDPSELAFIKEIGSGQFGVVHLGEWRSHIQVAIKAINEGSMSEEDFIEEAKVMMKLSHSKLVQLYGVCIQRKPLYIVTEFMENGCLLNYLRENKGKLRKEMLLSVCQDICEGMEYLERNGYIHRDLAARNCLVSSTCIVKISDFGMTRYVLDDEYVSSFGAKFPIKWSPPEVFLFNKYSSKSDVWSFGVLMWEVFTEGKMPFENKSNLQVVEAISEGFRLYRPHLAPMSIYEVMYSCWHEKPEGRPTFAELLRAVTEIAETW
Outline: as §1

JNK3 = biological target: T15, JNK3 (Homo sapiens, UniProt P53779); details: 500 nM; relative to DMSO; read-out: Residual enzymatic activity
T15 construct: purchased Reaction Biology Corporation
Outline: as §1

HPK1/MAP4K1 = biological target: T16, HPK1/MAP4K1 (Homo sapiens, UniProt Q92918); details: 500 nM; relative to DMSO; read-out: Residual enzymatic activity
T16 construct: purchased Reaction Biology Corporation
Outline: as §1

MLCK/MYLK = biological target: T17, MLCK/MYLK (Homo sapiens, UniProt Q15746); details: 500 nM; relative to DMSO; read-out: Residual enzymatic activity
T17 construct: purchased Reaction Biology Corporation
Outline: as §1

PKG1a = biological target: T18, PKG1a (Homo sapiens, UniProt Q13976); details: 500 nM; relative to DMSO; read-out: Residual enzymatic activity
T18 construct: purchased Reaction Biology Corporation
Outline: as §1

MRCKb/CDC42BPB = biological target: T19, MRCKb/CDC42BPB (Homo sapiens, UniProt Q9Y5S2); details: read-out: Residual enzymatic activity
T19 construct: purchased Reaction Biology Corporation
Outline: as §1

SRPK1 = biological target: T20, SRPK1 (Homo sapiens, UniProt Q96SB4); details: 500 nM; relative to DMSO; read-out: Residual enzymatic activity
T20 construct: purchased Reaction Biology Corporation
Outline: as §1

[1] = 10-dose mode, threefold serial dilution from 10 μM

T5 sequence (P54764 20-986): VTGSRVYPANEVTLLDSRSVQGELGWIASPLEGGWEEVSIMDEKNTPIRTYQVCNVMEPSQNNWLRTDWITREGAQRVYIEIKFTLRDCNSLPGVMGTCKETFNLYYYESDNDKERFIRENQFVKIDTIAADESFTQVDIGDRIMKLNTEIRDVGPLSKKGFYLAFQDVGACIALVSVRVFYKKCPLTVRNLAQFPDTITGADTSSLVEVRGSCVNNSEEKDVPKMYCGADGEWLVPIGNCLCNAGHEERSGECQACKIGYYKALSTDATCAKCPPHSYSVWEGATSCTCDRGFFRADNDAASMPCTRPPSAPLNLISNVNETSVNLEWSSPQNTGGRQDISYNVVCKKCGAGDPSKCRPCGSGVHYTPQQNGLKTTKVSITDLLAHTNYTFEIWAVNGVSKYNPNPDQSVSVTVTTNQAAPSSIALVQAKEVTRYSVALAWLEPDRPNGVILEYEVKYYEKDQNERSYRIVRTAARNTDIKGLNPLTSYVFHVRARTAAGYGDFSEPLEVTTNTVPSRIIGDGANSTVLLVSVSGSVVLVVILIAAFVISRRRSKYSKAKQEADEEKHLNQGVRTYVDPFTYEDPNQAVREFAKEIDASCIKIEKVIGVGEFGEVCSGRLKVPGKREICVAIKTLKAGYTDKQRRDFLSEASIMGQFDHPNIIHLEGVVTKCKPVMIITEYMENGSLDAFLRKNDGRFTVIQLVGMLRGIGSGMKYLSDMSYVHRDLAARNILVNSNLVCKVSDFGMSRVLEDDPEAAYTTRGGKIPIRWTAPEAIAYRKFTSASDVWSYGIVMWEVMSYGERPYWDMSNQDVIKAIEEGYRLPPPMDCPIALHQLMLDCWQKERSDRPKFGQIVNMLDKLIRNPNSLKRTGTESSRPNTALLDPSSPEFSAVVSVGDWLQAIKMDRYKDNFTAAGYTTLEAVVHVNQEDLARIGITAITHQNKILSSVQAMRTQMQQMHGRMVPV
T12 sequence (P57059 whole entry): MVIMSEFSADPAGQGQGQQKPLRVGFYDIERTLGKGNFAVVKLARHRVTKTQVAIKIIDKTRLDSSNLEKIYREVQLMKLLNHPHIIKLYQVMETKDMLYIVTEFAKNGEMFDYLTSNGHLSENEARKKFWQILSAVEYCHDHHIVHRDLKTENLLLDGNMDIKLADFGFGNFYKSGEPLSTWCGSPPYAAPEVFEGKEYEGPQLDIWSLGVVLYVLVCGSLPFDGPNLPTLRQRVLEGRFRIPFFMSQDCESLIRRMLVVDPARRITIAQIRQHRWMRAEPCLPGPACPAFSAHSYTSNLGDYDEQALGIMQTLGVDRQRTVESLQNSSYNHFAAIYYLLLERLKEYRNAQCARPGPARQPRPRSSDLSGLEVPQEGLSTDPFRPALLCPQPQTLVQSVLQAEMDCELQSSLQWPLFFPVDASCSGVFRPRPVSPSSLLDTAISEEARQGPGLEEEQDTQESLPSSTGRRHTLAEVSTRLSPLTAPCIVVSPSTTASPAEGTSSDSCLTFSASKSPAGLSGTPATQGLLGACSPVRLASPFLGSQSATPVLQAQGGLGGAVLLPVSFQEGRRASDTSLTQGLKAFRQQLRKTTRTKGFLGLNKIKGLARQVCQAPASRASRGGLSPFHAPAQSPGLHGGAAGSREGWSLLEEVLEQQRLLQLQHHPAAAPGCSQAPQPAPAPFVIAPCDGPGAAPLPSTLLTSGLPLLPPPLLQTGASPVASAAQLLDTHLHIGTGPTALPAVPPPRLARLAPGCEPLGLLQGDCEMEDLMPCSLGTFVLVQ
T18 sequence (Q13976 whole entry): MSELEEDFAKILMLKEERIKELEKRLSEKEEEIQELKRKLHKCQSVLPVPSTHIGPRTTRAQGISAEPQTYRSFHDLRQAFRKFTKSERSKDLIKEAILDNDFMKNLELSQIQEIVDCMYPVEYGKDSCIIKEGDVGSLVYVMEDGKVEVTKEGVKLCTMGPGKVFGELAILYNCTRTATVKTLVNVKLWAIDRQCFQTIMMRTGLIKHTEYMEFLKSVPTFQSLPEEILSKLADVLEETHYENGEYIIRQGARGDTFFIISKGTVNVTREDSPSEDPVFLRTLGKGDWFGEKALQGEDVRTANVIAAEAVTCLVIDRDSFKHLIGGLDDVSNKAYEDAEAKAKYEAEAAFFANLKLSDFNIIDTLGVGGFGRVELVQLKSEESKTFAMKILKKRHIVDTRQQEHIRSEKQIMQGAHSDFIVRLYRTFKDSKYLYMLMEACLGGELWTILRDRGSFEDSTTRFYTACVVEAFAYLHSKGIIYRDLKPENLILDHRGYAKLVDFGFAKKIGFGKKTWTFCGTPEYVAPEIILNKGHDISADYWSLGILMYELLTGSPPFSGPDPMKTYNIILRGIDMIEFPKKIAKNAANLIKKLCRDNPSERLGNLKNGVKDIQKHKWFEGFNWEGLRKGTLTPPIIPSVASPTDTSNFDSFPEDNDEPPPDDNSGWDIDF
T17 sequence (Q15746 whole entry): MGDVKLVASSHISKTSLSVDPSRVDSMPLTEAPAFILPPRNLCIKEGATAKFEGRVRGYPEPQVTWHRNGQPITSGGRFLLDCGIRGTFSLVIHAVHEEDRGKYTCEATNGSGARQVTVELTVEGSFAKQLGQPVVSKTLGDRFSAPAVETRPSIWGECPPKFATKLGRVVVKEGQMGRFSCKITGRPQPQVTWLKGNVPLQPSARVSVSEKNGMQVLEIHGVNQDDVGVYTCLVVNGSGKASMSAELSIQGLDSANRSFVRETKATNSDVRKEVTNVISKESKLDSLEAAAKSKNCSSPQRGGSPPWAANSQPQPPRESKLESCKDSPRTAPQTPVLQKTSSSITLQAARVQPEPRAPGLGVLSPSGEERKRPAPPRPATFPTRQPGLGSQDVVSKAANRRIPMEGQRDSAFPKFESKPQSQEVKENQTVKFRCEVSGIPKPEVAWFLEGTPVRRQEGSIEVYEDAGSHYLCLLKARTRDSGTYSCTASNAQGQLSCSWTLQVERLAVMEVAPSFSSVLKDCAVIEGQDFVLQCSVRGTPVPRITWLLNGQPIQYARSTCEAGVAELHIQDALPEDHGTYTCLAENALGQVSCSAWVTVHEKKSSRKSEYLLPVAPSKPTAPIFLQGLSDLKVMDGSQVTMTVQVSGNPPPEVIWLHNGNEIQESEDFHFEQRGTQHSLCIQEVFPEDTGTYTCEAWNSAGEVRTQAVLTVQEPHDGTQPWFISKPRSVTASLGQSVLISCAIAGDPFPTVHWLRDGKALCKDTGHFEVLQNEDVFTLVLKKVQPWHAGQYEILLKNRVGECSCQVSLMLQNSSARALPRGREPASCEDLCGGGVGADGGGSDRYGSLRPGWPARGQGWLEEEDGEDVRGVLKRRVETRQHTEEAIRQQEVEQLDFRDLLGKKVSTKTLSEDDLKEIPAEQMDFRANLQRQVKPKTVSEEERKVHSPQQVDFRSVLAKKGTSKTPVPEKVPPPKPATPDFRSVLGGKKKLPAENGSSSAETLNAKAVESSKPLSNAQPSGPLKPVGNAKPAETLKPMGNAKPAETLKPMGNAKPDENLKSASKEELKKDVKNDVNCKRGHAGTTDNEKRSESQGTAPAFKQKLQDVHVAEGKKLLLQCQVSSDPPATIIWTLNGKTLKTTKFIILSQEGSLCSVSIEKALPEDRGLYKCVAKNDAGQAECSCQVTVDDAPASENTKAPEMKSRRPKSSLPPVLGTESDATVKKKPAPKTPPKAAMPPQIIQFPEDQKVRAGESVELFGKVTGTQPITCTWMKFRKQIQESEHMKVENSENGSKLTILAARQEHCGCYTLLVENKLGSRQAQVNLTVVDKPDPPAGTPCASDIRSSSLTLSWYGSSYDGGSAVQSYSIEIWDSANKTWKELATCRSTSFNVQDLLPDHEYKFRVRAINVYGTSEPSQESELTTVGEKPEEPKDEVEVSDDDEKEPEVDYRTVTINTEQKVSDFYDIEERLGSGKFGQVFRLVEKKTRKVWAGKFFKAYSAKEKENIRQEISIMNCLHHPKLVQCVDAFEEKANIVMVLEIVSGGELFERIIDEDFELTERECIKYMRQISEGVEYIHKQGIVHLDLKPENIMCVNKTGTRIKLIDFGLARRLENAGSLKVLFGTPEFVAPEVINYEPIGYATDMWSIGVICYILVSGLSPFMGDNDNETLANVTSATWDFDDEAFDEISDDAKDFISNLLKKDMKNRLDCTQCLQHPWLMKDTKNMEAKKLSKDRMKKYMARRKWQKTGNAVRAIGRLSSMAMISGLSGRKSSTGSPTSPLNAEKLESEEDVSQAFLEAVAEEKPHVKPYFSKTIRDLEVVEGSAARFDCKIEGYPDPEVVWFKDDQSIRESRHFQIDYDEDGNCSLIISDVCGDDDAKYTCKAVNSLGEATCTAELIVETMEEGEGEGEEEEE
T15 sequence (P53779 whole entry): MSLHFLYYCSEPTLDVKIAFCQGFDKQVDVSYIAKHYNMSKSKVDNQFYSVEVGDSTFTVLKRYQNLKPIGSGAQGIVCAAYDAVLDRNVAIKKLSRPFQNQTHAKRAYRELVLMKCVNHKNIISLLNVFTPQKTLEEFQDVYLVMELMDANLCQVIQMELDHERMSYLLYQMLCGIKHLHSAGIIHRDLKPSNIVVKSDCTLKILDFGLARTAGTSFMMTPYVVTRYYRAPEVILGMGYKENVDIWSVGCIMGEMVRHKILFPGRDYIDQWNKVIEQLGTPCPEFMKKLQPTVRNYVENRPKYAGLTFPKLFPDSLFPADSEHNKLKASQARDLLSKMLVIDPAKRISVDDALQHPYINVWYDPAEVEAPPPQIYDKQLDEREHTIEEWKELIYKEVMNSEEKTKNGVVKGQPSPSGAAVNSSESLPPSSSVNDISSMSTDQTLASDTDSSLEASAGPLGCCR

COc1cc(Nc2ncnc(Nc3cc4c(cn3)NC(=O)C(C)(C)O4)n2)cc(OC)c1OC [MT-SYK-03]
remaining activity at 0.5 µM (PKCiota): 102% | remaining activity at 0.5 µM (GRK3): 103% | remaining activity at 0.5 µM (NEK5): 63.6% | remaining activity at 0.5 µM (DYRK3): 91.6% | Residual enzymatic activity (EPHA4): 58.1% | remaining activity at 0.5 µM (EPHA4): > 54% | remaining activity at 0.5 µM (ERK2/MAPK1): 90.6% | Residual enzymatic activity (PKA): did not inhibit any | remaining activity at 0.5 µM (PKA): 96.4% | remaining activity at 0.5 µM (Haspin): 101% | remaining activity at 0.5 µM (CAMK2d): 104% | remaining activity at 0.5 µM (FLT3): 5.7% | IC50 (FLT3; [1]): 23 nM | remaining activity at 0.5 µM (WNK1): 106% | remaining activity at 0.5 µM (SIK1): 10.1% | IC50 (SIK1; [1]): 36 nM and 35.9 nM | remaining activity at 0.5 µM (MYO3b): 95.4% | remaining activity at 0.5 µM (TXK): 35.4% | IC50 (TXK; [1]): 222 nM | remaining activity at 0.5 µM (JNK3): 96.4% | remaining activity at 0.5 µM (HPK1/MAP4K1): 107% | remaining activity at 0.5 µM (MLCK/MYLK): 96.2% | remaining activity at 0.5 µM (PKG1a): 94.8% | remaining activity at 0.5 µM (MRCKb/CDC42BPB; 500 nM, relative to DMSO): 103% | remaining activity at 0.5 µM (SRPK1): 108%

COc1cc(Nc2ncc(F)c(Nc3ccc4c(n3)NC(=O)C(C)(C)O4)n2)cc(OC)c1OC [R406, reference compound]
remaining activity at 0.5 µM (PKCiota): 103% | remaining activity at 0.5 µM (GRK3): 102% | remaining activity at 0.5 µM (NEK5): 27.1% | remaining activity at 0.5 µM (DYRK3): 90.6% | remaining activity at 0.5 µM (EPHA4): 42.8% | remaining activity at 0.5 µM (ERK2/MAPK1): 88% | remaining activity at 0.5 µM (PKA): 50.8% | remaining activity at 0.5 µM (Haspin): 91.5% | remaining activity at 0.5 µM (CAMK2d; 500 nM, relative to DMSO): 98.9% | remaining activity at 0.5 µM (FLT3): 6.2% | remaining activity at 0.5 µM (WNK1): 103% | remaining activity at 0.5 µM (SIK1): 7.2% | remaining activity at 0.5 µM (MYO3b): 94.1% | remaining activity at 0.5 µM (TXK): 16.3% | remaining activity at 0.5 µM (JNK3): 114% | remaining activity at 0.5 µM (HPK1/MAP4K1): 98.8% | remaining activity at 0.5 µM (MLCK/MYLK): 90.5% | remaining activity at 0.5 µM (PKG1a): 85.4% | remaining activity at 0.5 µM (MRCKb/CDC42BPB): 105% | remaining activity at 0.5 µM (SRPK1): 101%
